From patent publication US11242337B2, “Compounds useful for treating gastrointestinal tract disorders” (Ardelyx, Inc., priority 2017, dated 2022)

What was measured:
[1] = target: T1, NHE3 (Homo sapiens, UniProt P48764); experiment: Cell-based assay of NHE-3 activity (pre-incubation inhibition), human; conditions: human Preincubation
T1 construct: expressed in transfected cells
T1 sequence (P48764 26-834): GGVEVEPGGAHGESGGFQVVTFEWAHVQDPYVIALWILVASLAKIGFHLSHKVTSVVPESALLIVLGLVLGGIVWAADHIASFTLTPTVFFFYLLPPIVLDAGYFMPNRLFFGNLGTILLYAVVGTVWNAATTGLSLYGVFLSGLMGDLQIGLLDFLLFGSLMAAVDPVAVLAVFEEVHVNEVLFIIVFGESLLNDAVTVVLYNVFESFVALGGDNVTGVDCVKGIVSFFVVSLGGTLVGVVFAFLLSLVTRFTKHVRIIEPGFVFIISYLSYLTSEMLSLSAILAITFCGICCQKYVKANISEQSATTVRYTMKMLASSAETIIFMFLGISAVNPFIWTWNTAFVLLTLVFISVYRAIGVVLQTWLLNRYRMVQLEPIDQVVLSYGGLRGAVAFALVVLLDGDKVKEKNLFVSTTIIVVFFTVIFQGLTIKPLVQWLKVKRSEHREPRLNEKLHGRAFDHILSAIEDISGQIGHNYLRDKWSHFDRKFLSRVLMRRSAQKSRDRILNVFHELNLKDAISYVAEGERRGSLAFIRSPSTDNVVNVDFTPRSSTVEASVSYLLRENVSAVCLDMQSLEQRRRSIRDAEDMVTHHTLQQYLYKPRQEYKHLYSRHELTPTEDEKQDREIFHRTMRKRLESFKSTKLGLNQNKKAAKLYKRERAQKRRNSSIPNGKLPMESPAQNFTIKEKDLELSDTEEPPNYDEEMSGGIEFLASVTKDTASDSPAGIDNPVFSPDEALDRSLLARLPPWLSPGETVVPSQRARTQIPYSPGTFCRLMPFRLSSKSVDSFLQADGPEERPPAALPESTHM
T1 sequence (Q99653 2-195 partner limits assumed): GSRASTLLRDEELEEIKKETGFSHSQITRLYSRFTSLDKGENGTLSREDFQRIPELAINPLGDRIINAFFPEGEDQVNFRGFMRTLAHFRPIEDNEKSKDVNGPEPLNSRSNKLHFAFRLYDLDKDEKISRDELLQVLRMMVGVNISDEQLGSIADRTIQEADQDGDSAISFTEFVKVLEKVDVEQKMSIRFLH
In short: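 Activity read as initial rate of BCECF fluorescence ratio change per minute (ex 439/505, em 538 nm) following NH4Cl prepulse acid loading. Compound (0–30 μM) present during 10 min Na+-free acidification at room temperature; cells were PS120 fibroblasts stably co-expressing human NHE3 and NHERF2.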

[2] = target: T1, NHE3; experiment: Cell-based assay of NHE-3 activity (persistent inhibition), human; conditions: human Persistence, 60 min incubation then washout
In short: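 Persistent inhibition: compound (0-30 μM, 60 min, RT, NaCl-HEPES pH 7.4) removed before assay. Human NHE3/NHERF2 PS120 cells were then BCECF-loaded during NH4Cl pulse (30 min, 37 °C), acidified in Na+-free buffer, and Na+ added 10 min after washout; antiport measured as initial fluorescence-ratio change per minute.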

## Cc1cc(Cl)cc2c1C[C@H](N1CCNCC1)[C@H]2Oc1ccc(S(=O)(=O)NCCOCCOCCNC(=O)NCCCCNC(=O)NCCOCCOCCNS(=O)(=O)c2ccc(O[C@H]3c4cc(Cl)cc(C)c4C[C@@H]3N3CCNCC3)c(F)c2)cc1F [Example 36, 3-[2-(2-[2-[(4-[[(1S,2S)-6-Chloro-4-methyl-2-(piperazin-1-yl)-2,3-dihydro-1H-inden-1-yl]oxy]-3-fluorobenzene)sulfonamido]ethoxy]ethoxy)ethyl]-1-[4-([[2-(2-[2-[(4-[[(1S,2S)-6-chloro-4-methyl-2-(piperazin-1-yl)-2,3-dihydro-1H-inden-1-yl]oxy]-3-fluorobenzene)sulfonamido]ethoxy]ethoxy)ethyl]carbamoyl]amino)butyl]urea; bis(trifluoroacetic acid)]
[1]
  % inhibition: C (>70%)
[1]; 0-30 μM test compound
  pIC50: C (NHE3 pIC50 > 7)
[2]
  % inhibition: C (>70%)
  pIC50: C (NHE3 pIC50 > 7)

## C[C@@H]1CN([C@H]2Cc3c(C#N)cc(Cl)cc3[C@@H]2Oc2ccc(S(=O)(=O)N[C@H]3CCN(CCOCCNC(=O)NCCCCNC(=O)NCCOCCN4CC[C@H](NS(=O)(=O)c5ccc(O[C@H]6c7cc(Cl)cc(C#N)c7C[C@@H]6N6CCN[C@H](C)C6)cc5)C4)C3)cc2)CCN1 [Example 132, 4-([(1S,2S)-6-Chloro-4-cyano-2-[(R)-3-methylpiperazin-1-yl]-2,3-dihydro-1H-inden-1-yl]oxy)-N—[(S)-1-(20-[(S)-3-([4-([(1S,2S)-6-chloro-4-cyano-2-[(R)-3-methylpiperazin-1-yl]-2,3-dihydro-1H-inden-1-yl]oxy)phenyl]sulfonamido)pyrrolidin-1-yl]-7,14-diaxo-3,18-dioxa-5,8,13,15-tetraazaicosyl)pyrrolidin-3-yl]benzenesulfonamide; bis(trifluoroacetic acid)]
[1]
  % inhibition: C (>70%)
[1]; 0-30 μM test compound
  pIC50: C (NHE3 pIC50 > 7)
[2]
  % inhibition: C (>70%)
  pIC50: C (NHE3 pIC50 > 7)

## CN(C)[C@H]1CCCN([C@H]2Cc3c(C#N)cc(Cl)cc3[C@@H]2Oc2ccc(S(=O)(=O)NCCOCCOCCNC(=O)NCCCCNC(=O)NCCOCCOCCNS(=O)(=O)c3ccc(O[C@H]4c5cc(Cl)cc(C#N)c5C[C@@H]4N4CCC[C@H](N(C)C)C4)cc3)cc2)C1 [Example 122, 4-([(1S,2S)-6-Chloro-4-cyano-2-[(S)-3-(dimethylamino)piperidin-1-yl]-2,3-dihydro-1H-inden-1-yl]oxy)-N-[26-([4-([(1S,2S)-6-chloro-4-cyano-2-[(S)-3-(dimethylamino)piperidin-1-yl]-2,3-dihydro-1H-inden-1-yl]oxy)phenyl]sulfonamido)-10,17-dioxo-3,6,21,24-tetraoxa-9,11,16,18-tetraazahexacosyl]benzenesulfonamide]
[1]
  % inhibition: C (>70%)
[1]; 0-30 μM test compound
  pIC50: C (NHE3 pIC50 > 7)
[2]
  % inhibition: C (>70%)
  pIC50: C (NHE3 pIC50 > 7)

## N#Cc1cc(Cl)cc2c1C[C@H](N1CCNCC1)[C@H]2Oc1ccc(S(=O)(=O)N[C@H]2CCN(CCOCCNC(=O)NCCCCNC(=O)NCCOCCN3CC[C@H](NS(=O)(=O)c4ccc(O[C@H]5c6cc(Cl)cc(C#N)c6C[C@@H]5N5CCNCC5)cc4)C3)C2)cc1 [Example 107, 4-([(1S,2S)-6-Chloro-4-cyano-2-(piperazin-1-yl)-2,3-dihydro-1H-inden-1-yl]oxy)-N—[(S)-1-(20-[(S)-3-([4-([(1S,2S)-6-chloro-4-cyano-2-(piperazin-1-yl)-2,3-dihydro-1H-inden-1-yl]oxy)phenyl]sulfonamido)pyrrolidin-1-yl]-7,14-dioxo-3,18-dioxa-6,8,13,15-tetraazaicosyl)pyrrolidin-3-yl]benzenesulfonamide; tetra(trifluoroacetate)]
[1]
  % inhibition: C (>70%)
[1]; 0-30 μM test compound
  pIC50: C (NHE3 pIC50 > 7)
[2]
  % inhibition: C (>70%)
  pIC50: C (NHE3 pIC50 > 7)

## N#Cc1cc(Cl)cc2c1C[C@H](N1CCNCC1)[C@H]2Oc1ccc(S(=O)(=O)NCCOCCOCCNC(=O)NCCCCNC(=O)NCCOCCOCCNS(=O)(=O)c2ccc(O[C@H]3c4cc(Cl)cc(C#N)c4C[C@@H]3N3CCNCC3)c(F)c2)cc1F [Example 43, 3-[2-(2-[2-[(4-[[(1S,2S)-6-Chloro-4-cyano-2-(piperazin-1-yl)-2,3-dihydro-1H-inden-1-yl]oxy]-3-fluorobenzene)sulfonamido]ethoxy]ethoxy)ethyl]-1-[4-([[2-(2-[2-[(4-[[(1S,2S)-6-chloro-4-cyano-2-(piperazin-1-yl)-2,3-dihydro-1H-inden-1-yl]oxy]-3-fluorobenzene)sulfonamido]ethoxy]ethoxy)ethyl]carbamoyl]amino)butyl]urea; bis(trifluoroacetic acid)]
[1]
  % inhibition: C (>70%)
[1]; 0-30 μM test compound
  pIC50: C (NHE3 pIC50 > 7)
[2]
  % inhibition: C (>70%)
  pIC50: C (NHE3 pIC50 > 7)

## N#Cc1cc(Cl)cc2c1C[C@H](N1CCNCC1)[C@H]2Oc1ccc(S(=O)(=O)NC2CCN(C(=O)CCCNC(=O)NCCCCNC(=O)NCCCC(=O)N3CCC(NS(=O)(=O)c4ccc(O[C@H]5c6cc(Cl)cc(C#N)c6C[C@@H]5N5CCNCC5)cc4)CC3)CC2)cc1 [Example 115]
[1]
  % inhibition: C (>70%)
[1]; 0-30 μM test compound
  pIC50: C (NHE3 pIC50 > 7)
[2]
  % inhibition: C (>70%)
  pIC50: C (NHE3 pIC50 > 7)

## Cc1cc(Cl)cc2c1C[C@H](N1CCC[C@@H](N(C)C)C1)[C@H]2Oc1ccc(S(=O)(=O)NCCOCCOCCNC(=O)NCCCCNC(=O)NCCOCCOCCNS(=O)(=O)c2ccc(O[C@H]3c4cc(Cl)cc(C)c4C[C@@H]3N3CCC[C@@H](N(C)C)C3)cc2)cc1 [Example 28, 3-[2-(2-[2-[(4-[[(1S,2S)-6-Chloro-2-[(3R)-3-(dimethylamino)piperidin-1-yl]-4-methyl-2,3-dihydro-1H-inden-1-yl]oxy]benzene)sulfonamido]ethoxy]ethoxy)ethyl]-1-[4-([[2-(2-[2-[(4-[[(1S,2S)-6-chloro-2-[(3R)-3-(dimethylamino)piperidin-1-yl]-4-methyl-2,3-dihydro-1H-inden-1-yl]oxy]benzene)sulfonamido]ethoxy]ethoxy)ethyl]carbamoyl]amino)butyl]urea; bis(trifluoroacetic acid)]
[1]
  % inhibition: C (>70%)
[1]; 0-30 μM test compound
  pIC50: C (NHE3 pIC50 > 7)
[2]
  % inhibition: C (>70%)
  pIC50: C (NHE3 pIC50 > 7)

## N#Cc1cc(Cl)cc2c1C[C@H](N1CCCNCC1)[C@H]2Oc1ccc(S(=O)(=O)N[C@H]2CCN(CCOCCNC(=O)NCCCCNC(=O)NCCOCCN3CC[C@H](NS(=O)(=O)c4ccc(O[C@H]5c6cc(Cl)cc(C#N)c6C[C@@H]5N5CCCNCC5)cc4)C3)C2)cc1 [Example 126, 4-([(1S,2S)-6-Chloro-4-cyano-2-(1,4-diazepan-1-yl)-2,3-dihydro-1H-inden-1-yl]oxy)-N—[(S)-1-(20-[(S)-3-([4-([(1S,2S)-6-chloro-4-cyano-2-(1,4-diazepan-1-yl)-2,3-dihydro-1H-inden-1-yl]oxy)phenyl]sulfonamido)pyrrolidin-1-yl]-7,14-dioxo-3,18-dioxa-6,8,13,15-tetraazaicosyl)pyrrolidin-3-yl]benzenesulfonamide]
[1]
  % inhibition: C (>70%)
[1]; 0-30 μM test compound
  IC50: < 100 nM
[2]
  % inhibition: B (40-70%)
  IC50: < 100 nM

## O=C(NCCCCNC(=O)NCCOCCN1CC[C@H](NS(=O)(=O)c2ccc(O[C@H]3c4cc(Cl)cc(Cl)c4C[C@@H]3N3CCNCC3)c(F)c2)C1)NCCOCCN1CC[C@H](NS(=O)(=O)c2ccc(O[C@H]3c4cc(Cl)cc(Cl)c4C[C@@H]3N3CCNCC3)c(F)c2)C1 [Example 106, 4-([(1S,2S)-4,6-Dichloro-2-(piperazin-1-yl)-2,3-dihydro-1H-inden-1-yl]oxy)-N—[(S)-1-(20-[(S)-3-([4-([(1S,2S)-4,6-dichloro-2-(piperazin-1-yl)-2,3-dihydro-1H-inden-1-yl]oxy)-3-fluorophenyl]sulfonamido)pyrrolidin-1-yl]-7,14-dioxo-3,18-dioxa-6,8,13,15-tetraazaicosyl)pyrrolidin-3-yl]-3-fluorobenzenesulfonamide; tetra(trifluoroacetate)]
[1]
  % inhibition: C (>70%)
[2]
  % inhibition: C (>70%)
